SMILES strings stand for the structures. Values after ≈ are worked out from the molar mass of the structure shown. Inconclusive results are not listed. Active and inactive are the calls of the source. No rule for the calls is given here.

Data on 50 molecules can be found in PubChem BioAssay AID1949 (Southern Research Institute, 2009).

The assay relates to M. tuberculosis H37Rv growth inhibition. Description: Mycobacterium tuberculosis H37Rv growth inhibition, cell based, confirmatory dose response (AID 1949).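 Also: bacteria grown 7 days with compound before Alamar blue readout.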
As usually defined, the IC50 is the concentration that inhibits the measured activity by half. As for `O=C(CCNc1ccc(F)cc1)c1ccco1`, the IC50 was 5.39 µg/mL (≈ 23.1 µM). As for `Cn1c(Sc2cnn(-c3ccccc3)c(=O)c2Br)nnc1-c1ccccc1`, the figure is 2.81 µg/mL (≈ 6.38 µM).

As to `CCOc1ccc(S(=O)(=O)Nc2ccc(C(F)(F)F)cc2)cc1`, the IC50 is 6.25 µg/mL (≈ 18.1 µM). As for `CCC(=O)N1CCN(c2ccc(Cl)cc2NC(=O)CC23CC4CC(CC(C4)C2)C3)CC1`, the figure is 6.98 µg/mL (≈ 15.7 µM); as for `COC(=O)c1ccc(NC(=O)CSc2nnc(Cc3ccc(OC)cc3)o2)cc1`, 11.1 µg/mL (≈ 26.8 µM).

On to `OCc1cn(-c2ccccc2)nc1-c1ccc2ccccc2c1`, for which the half-maximal inhibitory concentration (IC50) is 4.25 µg/mL (≈ 14.1 µM). Turning to `Cc1cc(C)cc(COc2ccc3c(C)c(CCC(=O)O)c(=O)oc3c2C)c1`, the concentration for half-maximal inhibition (IC50) is 0.32 µg/mL (≈ 0.841 µM). As for `O=C(COc1ccc2ccccc2c1)c1ccc(Cl)cc1`, the figure is 16.5 µg/mL (≈ 55.4 µM); as for `COc1ccc(OC(=O)c2sc3ccccc3c2Cl)cc1`, > 50 µg/mL (inactive). As for `Cc1ccc2[nH]c3c(c2c1)CCCC3NCCCOc1ccc(F)cc1` (stereo not given), the figure is 1.7 µg/mL (≈ 4.82 µM); as for `Cc1ccc(-c2csc(Nc3ccc(C(=O)O)c(O)c3)n2)cc1`, 1.46 µg/mL (≈ 4.47 µM). With `COC(=O)C(C)Oc1ccc2c(=O)c(Oc3ccccc3Br)coc2c1` (stereo not given), the IC50 was 2.96 µg/mL (≈ 7.06 µM). As for `Cc1ccc(OCC(=O)c2ccc(Cl)cc2)cc1C`, the figure is 17.6 µg/mL (≈ 64.1 µM). Under `O=[N+]([O-])c1ccc(-c2[nH]c(-c3cccc(F)c3)nc2-c2ccccc2)cc1` stands 2.62 µg/mL (≈ 7.29 µM). As for `COc1ccc(C(C)(C)C)cc1NC(=S)Nc1ccc(Cl)c(Cl)c1`, the IC50 was 1.43 µg/mL (≈ 3.73 µM). Regarding `O=C(/C=C/c1cccc(C(F)(F)F)c1)Nc1cccc(C(F)(F)F)c1`, the half-maximal inhibitory concentration (IC50) is 0.9 µg/mL (≈ 2.51 µM). Under `O=Cc1c(Nc2ccccc2)nc2ccccn2c1=O` stands 6.7 µg/mL (≈ 25.3 µM); under `Cc1ccccc1NC(=O)c1c(NC(=O)CN2CCN(C)CC2)sc2c1CCC(C(C)(C)C)C2` (stereo not given), 40.2 µg/mL (≈ 83.3 µM).

For the molecule `CCOC(=O)CSc1nc(C#N)c(SCC(=O)OCC)s1`, the IC50 was 2.29 µg/mL (≈ 6.61 µM). Under `O=C(CC12CC3CC(CC(C3)C1)C2)Nc1ccc2ccccc2c1` stands less than 0.1 µg/mL; under `COc1ccccc1-c1c(C)oc2cc(OCC(=O)OCc3ccccc3)ccc2c1=O`, 0.36 µg/mL (≈ 0.836 µM); under `CC(C)(C)c1ccc(C(=O)Nc2nc(-c3ccccc3)ns2)cc1`, 3.05 µg/mL (≈ 9.04 µM). Take `c1ccc(CCc2ccccc2-c2nc(-c3ccncc3)no2)cc1`: the IC50 was 8.77 µg/mL (≈ 26.8 µM). Consider `O=C1C(Cl)=C(N2CCOCC2)C(=O)N1c1cccc(Cl)c1Cl`, for which the IC50 is 20.9 µg/mL (≈ 57.7 µM).

`CC(=O)c1c(C)nc(-c2ccc(Cl)c(Cl)c2)n1O`: the concentration for half-maximal inhibition (IC50) is 17.4 µg/mL (≈ 60.9 µM). `O=C(Oc1ccccc1)c1cccc(COC(=O)c2cnccn2)c1`: the concentration for half-maximal inhibition (IC50) is 28 µg/mL (≈ 83.8 µM).

As to `COc1ccccc1-c1coc2cc(OCC(=O)OC3CCCCC3)ccc2c1=O`, the IC50 is 0.24 µg/mL (≈ 0.588 µM). As for `Cc1cc(-n2c(C)cc(/C=C3\NC(=O)NC3=O)c2C)ccc1Br`, the figure is 8.38 µg/mL (≈ 22.4 µM); as for `COc1cc([N+](=O)[O-])ccc1NC(=S)Nc1ccc(F)c(Cl)c1`, 2.76 µg/mL (≈ 7.76 µM); as for `COc1ccc(-c2nnc(SCC(=O)NCCc3ccccc3)o2)cc1`, less than 0.1 µg/mL.

Consider `CCOC(=O)COc1ccc2c(=O)c(Oc3ccccc3Cl)coc2c1`, for which the IC50 is 2.08 µg/mL (≈ 5.55 µM). As for `O=C(Nc1ccc(-c2nc3ccccc3c(=O)o2)cc1)C(c1ccccc1)c1ccccc1`, the figure is > 50 µg/mL (inactive); as for `CCOC(=O)c1cc(-c2ccccc2)sc1NC(=S)NC(C)c1ccncc1` (stereo not given), 1.47 µg/mL (≈ 3.57 µM). Turning to `O=C(COc1ccc([N+](=O)[O-])cc1)Nc1ccccc1F`, the IC50 is 18.7 µg/mL (≈ 64.6 µM). For the molecule `Nc1cc(N)c2cc(-c3ccccc3)oc2c1`, the IC50 is > 50 µg/mL (inactive). In the case of `CSc1ncnc2c1ncn2CC(=O)Nc1ccc(C)c(C)c1`, the half-maximal inhibitory concentration (IC50) is less than 0.1 µg/mL. Under `O=[N+]([O-])c1nn(-c2ccccc2)n(O)c1=NC1CCCC1` stands 39.3 µg/mL (≈ 136 µM); under `CC(=O)Oc1ccc2nc(-c3ccc(C(C)(C)C)cc3)oc(=O)c2c1`, > 50 µg/mL (inactive); under `CCCCc1ccc2nc(NC(=O)c3cccs3)sc2c1`, 6.52 µg/mL (≈ 20.6 µM).

With `CCOC(=O)C(C)Oc1ccc2c(=O)c(Oc3ccccc3Cl)coc2c1` (stereo not given), the 50% inhibitory concentration (IC50) is 8.87 µg/mL (≈ 22.8 µM).

As for `COc1ccc(C(=O)C(CN2CCCCC2)c2ccccc2)cc1` (stereo not given), the half-maximal inhibitory concentration (IC50) is 3.15 µg/mL (≈ 9.74 µM). Under `CCOC(=O)c1ccc(NC(=O)CSc2nnc(-c3ccc(OC)cc3)o2)cc1` stands 0.17 µg/mL (≈ 0.411 µM); under `Oc1ccccc1-c1n[nH]c(/C=C/c2ccc(Cl)cc2)n1`, 2.73 µg/mL (≈ 9.17 µM); under `O=C(Oc1ccc(F)cc1)c1sc2ccccc2c1Cl`, 3.07 µg/mL (≈ 10 µM). Turning to `O=C(Nc1ccc(F)c(Cl)c1)C12CC3CCC(CC(C3)C1)C2`, the half-maximal inhibitory concentration (IC50) was less than 0.1 µg/mL. Under `CCOC(=O)c1c(CSc2ccccc2)n(-c2ccccc2)c2ccc(O)c(CN(C)C)c12` stands 1.4 µg/mL (≈ 3.04 µM); under `COc1ccc(OCC(=O)N=Nc2c(O)[nH]c3c(Br)cc(C)cc23)c(Br)c1`, 16.7 µg/mL (≈ 33.6 µM); under `COc1ccc(-c2csc(-c3ccc(OC)c(OC)c3)n2)cc1C`, less than 0.1 µg/mL. On to `NC(CC(=O)c1ccc(Cl)cc1Cl)C(Cl)(Cl)Cl` (stereo not given), for which the concentration for half-maximal inhibition (IC50) is 0.27 µg/mL (≈ 0.805 µM).

Regarding `Cc1sc2ncn(C(C)C(=O)OC3CCCCC3)c(=O)c2c1C` (stereo not given), the half-maximal inhibitory concentration (IC50) was 1.11 µg/mL (≈ 3.32 µM).
